# Assay results reported in BindingDB's records for doi:10.1016/s0960-894x(02)00988-5 (Merck Research Laboratories, 2003).
# Assay: Inhibition over 48 hr of BAL strain HIV infrction of HeLa Magi cells expressing CCR5
row,SMILES,IC50 [µM]
1,"O=C(C1CCCCC1)N1C[C@H](CN2CCC(N(CC3CC3)c3ccccn3)CC2)[C@@H](c2ccccc2)C1 [Cyclohexyl-{(3S,4S)-3-[4-(cyclopropylmethyl-pyridin-2-yl-amino)-piperidin-1-ylmethyl]-4-phenyl-pyrrolidin-1-yl}-methanone]",0.033
2,"CCCN(c1ccccn1)C1CCN(C[C@H]2CN([C@@H](C(=O)O)C3CCCCC3)C[C@@H]2c2ccccc2)CC1 [(R)-Cyclohexyl-{(3S,4S)-3-phenyl-4-[4-(propyl-pyridin-2-yl-amino)-piperidin-1-ylmethyl]-pyrrolidin-1-yl}-acetic acid]",0.1
3,"CCCN(c1ccccn1)C1CCN(C[C@H]2CN(C(=O)N3CCCC3)C[C@@H]2c2ccccc2)CC1 [{(3S,4S)-3-Phenyl-4-[4-(propyl-pyridin-2-yl-amino)-piperidin-1-ylmethyl]-pyrrolidin-1-yl}-pyrrolidin-1-yl-methanone]",0.3
4,"CCCN(c1ccccn1)C1CCN(C[C@H]2CN(C(=O)C3CCCCC3)C[C@@H]2c2ccccc2)CC1 [cyclohexyl((3S,4S)-3-phenyl-4-((4-(propyl(pyridin-2-yl)amino)piperidin-1-yl)methyl)pyrrolidin-1-yl)methanone]",0.1
5,"CCCN(c1ccccn1)C1CCN(C[C@H]2CN(C(=O)c3ccccc3Cl)C[C@@H]2c2ccccc2)CC1 [(2-Chloro-phenyl)-{(3S,4S)-3-phenyl-4-[4-(propyl-pyridin-2-yl-amino)-piperidin-1-ylmethyl]-pyrrolidin-1-yl}-methanone]",0.3
6,"CCCN(c1ccncn1)C1CCN(C[C@H]2CN([C@H](CC3CCC3)C(=O)O)C[C@@H]2c2cccc(F)c2)CC1 [(R)-3-Cyclobutyl-2-{(3S,4S)-3-(3-fluoro-phenyl)-4-[4-(propyl-pyrimidin-4-yl-amino)-piperidin-1-ylmethyl]-pyrrolidin-1-yl}-propionic acid]",0.033
7,"CCCN(c1ncccn1)C1CCN(C[C@H]2CN([C@@H](C(=O)O)C3CCCCC3)C[C@@H]2c2ccccc2)CC1 [(R)-2-cyclohexyl-2-((3S,4S)-3-phenyl-4-((4-(propyl(pyrimidin-2-yl)amino)piperidin-1-yl)methyl)pyrrolidin-1-yl)acetic acid]",0.033
8,"CCCN(c1ccccn1)C1CCN(C[C@H]2CN(C(=O)C3CCC3)C[C@@H]2c2ccccc2)CC1 [cyclobutyl((3S,4S)-3-phenyl-4-((4-(propyl(pyridin-2-yl)amino)piperidin-1-yl)methyl)pyrrolidin-1-yl)methanone]",0.3

# Assay: as above
# Remark: another data set of the same source
row,SMILES,IC50 [µM]
1,"CCCN(c1ncc(C(F)(F)F)cn1)C1CCN(C[C@H]2CN([C@H](CC3CCC3)C(=O)O)C[C@@H]2c2cccc(F)c2)CC1 [(R)-3-Cyclobutyl-2-((3S,4S)-3-(3-fluoro-phenyl)-4-{4-[propyl-(5-trifluoromethyl-pyrimidin-2-yl)-amino]-piperidin-1-ylmethyl}-pyrrolidin-1-yl)-propionic acid]",0.1
2,"C=CCN(c1ccc(C(F)(F)F)cn1)C1CCN(C[C@H]2CN(C(=O)C3CCCCC3)C[C@@H]2c2ccccc2)CC1 [((3S,4S)-3-{4-[Allyl-(5-trifluoromethyl-pyridin-2-yl)-amino]-piperidin-1-ylmethyl}-4-phenyl-pyrrolidin-1-yl)-cyclohexyl-methanone]",0.037
3,"CCCN(c1ncccn1)C1CCN(C[C@H]2CN([C@@H](C(=O)O)C3CCCCC3)C[C@@H]2c2cccc(F)c2)CC1 [(R)-Cyclohexyl-{(3S,4S)-3-(3-fluoro-phenyl)-4-[4-(propyl-pyrimidin-2-yl-amino)-piperidin-1-ylmethyl]-pyrrolidin-1-yl}-acetic acid]",0.033
4,"CCCN(c1ncccn1)C1CCN(C[C@H]2CN([C@H](CC3CCC3)C(=O)O)C[C@@H]2c2cccc(F)c2)CC1 [(R)-3-cyclobutyl-2-((3S,4S)-3-(3-fluorophenyl)-4-((4-(propyl(pyrimidin-2-yl)amino)piperidin-1-yl)methyl)pyrrolidin-1-yl)propanoic acid]",0.011
5,"CCCN(c1cccnc1)C1CCN(C[C@H]2CN([C@@H](C(=O)O)C3CCCCC3)C[C@@H]2c2ccccc2)CC1 [(R)-Cyclohexyl-{(3S,4S)-3-phenyl-4-[4-(propyl-pyridin-3-yl-amino)-piperidin-1-ylmethyl]-pyrrolidin-1-yl}-acetic acid]",0.033
6,"CCCN(c1nccc(OC)n1)C1CCN(C[C@H]2CN([C@H](CC3CCC3)C(=O)O)C[C@@H]2c2cccc(F)c2)CC1 [(R)-3-Cyclobutyl-2-((3S,4S)-3-(3-fluoro-phenyl)-4-{4-[(4-methoxy-pyrimidin-2-yl)-propyl-amino]-piperidin-1-ylmethyl}-pyrrolidin-1-yl)-propionic acid]",0.1
7,"CCCN(c1ncc(F)cn1)C1CCN(C[C@H]2CN([C@H](CC3CCC3)C(=O)O)C[C@@H]2c2cccc(F)c2)CC1 [(R)-3-Cyclobutyl-2-((3S,4S)-3-(3-fluoro-phenyl)-4-{4-[(5-fluoro-pyrimidin-2-yl)-propyl-amino]-piperidin-1-ylmethyl}-pyrrolidin-1-yl)-propionic acid]",0.033
8,"O=C(O)[C@@H](CC1CCC1)N1C[C@H](CN2CCC(N(CC3CC3)c3ncccn3)CC2)[C@@H](c2cccc(F)c2)C1 [(R)-3-Cyclobutyl-2-[(3S,4S)-3-[4-(cyclopropylmethyl-pyrimidin-2-yl-amino)-piperidin-1-ylmethyl]-4-(3-fluoro-phenyl)-pyrrolidin-1-yl]-propionic acid]",0.011
9,"C=CCN(c1cccnc1)C1CCN(C[C@H]2CN(C(=O)C3CCCCC3)C[C@@H]2c2ccccc2)CC1 [{(3S,4S)-3-[4-(Allyl-pyridin-3-yl-amino)-piperidin-1-ylmethyl]-4-phenyl-pyrrolidin-1-yl}-cyclohexyl-methanone]",0.012
10,"CCN(c1ncccn1)C1CCN(C[C@H]2CN([C@H](CC3CCC3)C(=O)O)C[C@@H]2c2cccc(F)c2)CC1 [(R)-3-Cyclobutyl-2-[(3S,4S)-3-[4-(ethyl-pyrimidin-2-yl-amino)-piperidin-1-ylmethyl]-4-(3-fluoro-phenyl)-pyrrolidin-1-yl]-propionic acid]",0.1
11,"C=CCN(c1ccccn1)C1CCN(C[C@H]2CN(C(=O)C3CCCCC3)C[C@@H]2c2ccccc2)CC1 [{(3S,4S)-3-[4-(Allyl-pyridin-2-yl-amino)-piperidin-1-ylmethyl]-4-phenyl-pyrrolidin-1-yl}-cyclohexyl-methanone]",0.011
12,"CCCN(c1cncnc1)C1CCN(C[C@H]2CN([C@H](CC3CCC3)C(=O)O)C[C@@H]2c2cccc(F)c2)CC1 [(R)-3-Cyclobutyl-2-{(3S,4S)-3-(3-fluoro-phenyl)-4-[4-(propyl-pyrimidin-5-yl-amino)-piperidin-1-ylmethyl]-pyrrolidin-1-yl}-propionic acid]",0.011
13,"CCCN(c1nccc(C(F)(F)F)n1)C1CCN(C[C@H]2CN([C@H](CC3CCC3)C(=O)O)C[C@@H]2c2cccc(F)c2)CC1 [(R)-3-Cyclobutyl-2-((3S,4S)-3-(3-fluoro-phenyl)-4-{4-[propyl-(4-trifluoromethyl-pyrimidin-2-yl)-amino]-piperidin-1-ylmethyl}-pyrrolidin-1-yl)-propionic acid]",0.45
